Laboratory results as given in patent publication US10933067B2, “Nucleoside derivative having physiological activity such as antiviral activity” (NATIONAL CENTER FOR GLOBAL HEALTH AND MEDICINE, priority 2016, dated 2021).
Where two headings read alike, the source gives them in different places.

Legend:
Format in all cases: cell-based
[1] = test system: HBV; assay: Evaluation of anti-HBV activity (HepG2 2.2.15.7 cells, HBV DNA qPCR); conditions: Hepatitis B virus
Method: HepG2 2.2.15.7 cells were used as test cells. The HepG2 2.2.15.7 cells were prepared by using, as parent cell lines, HepG2 2.2.15 cells prepared so as to continuously produce HBV by introducing the HBV genes into human hepatoma cell lines (HepG2 cells). Meanwhile, the HepG2 2.2.15.7 cells were maintained by continuous culturing in DMEM containing 10% fetal calf serum, G418 (500 μg/ml), and antibiotics (penicillin and kanamycin).
The HepG2 2.2.15.7 cells are HBV continuously producing cells that carry not only genomically integrated DNAs, but also HBV genes produced as episomes. Therefore, the HepG2 2.2.15.7 cells were co-cultured with each nucleoside derivative, the DNA copy number of viruses released into the culture supernatant and the DNA copy number of the viruses present in the HepG2 2.2.15.7 cells were quantified, and a degree of decrease thereof was used as an index of the evaluation of the anti-HBV activity.
More specifically, the epG2 2.2.15.7 cells with a cell viability of 90% or more were seeded in a collagen-coated 96-well cell culture dish at a concentration of 2×10^4 cells/ml, and each nucleoside derivative was added at various concentrations at the same day as the cell seeding. After culturing for 3 days under the standard culture conditions of 37° C. and 5% CO2, the medium was exchanged to a fresh medium containing each nucleoside derivative, and HBV DNA was collected from the culture supernatant on the third day after the exchange for a 1W assay (an assay on day 7 from the start of culture). In addition, a fresh medium containing each nucleoside derivative was further added to the cell plate after the collection of the supernatant, and the culture was further continued for 7 days. For a 2W assay (an assay on day 14 from the start of culture), intracellular HBV DNAs were collected from the HepG2 2.2.15.7 cells. Using these DNAs as a template, the quantitative PCR was performed to find the virus copy number from the calibration curve, and the 50% effect (EC50) for each nucleoside derivative was calculated.
The DNA extractions from the supernatant of the HepG2 2.2.15.7 cells and from inside the cells were carried out using QIAamp Mini Elute virus Spin Kit (manufactured by QIAGEN), and 5 μL of the extracted DNAs was used for the qPCR. The PCR reaction was conducted by using a specific TaqMan probe primer, manufactured by Primer Design Ltd., which detects the HBV core protein region. The PCR reaction was carried out at 95° C. for 15 minutes, followed by 50 cycles of 95° C. for 10 seconds and 60° C. for 60 seconds. The obtained CT was converted to the HBV copy number using a calibration curve obtained from reactions in which HBV DNA fragments at a known concentration were diluted every 10-fold (from to 2×10^8 copies).

[2] = Cytotoxicity test 1, HepG2 cells (MTT assay); conditions: human
Method: (§1) The above nucleoside derivatives were also subjected to cytotoxicity tests on the MT-2 cells and HepG2 cells. Together with the medium to which each nucleoside derivative at each concentration after serial dilution was added, the MT-2 cells were seeded at a concentration of 1×10^4, whereas the HepG2 cells were seeded at a concentration of 1×10^4. Thus, these cells were cultured in the presence of each nucleoside derivative at various concentrations for 7 days under the standard culture conditions of 37° C. and 5% CO2, and thereafter the number of live cells in each well was quantified by an MTT assay. Based on the numbers of live cells obtained, the CC50 was calculated for each nucleoside derivative.

[3] = test system: HIV-1 LAI; assay: Evaluation of anti-HIV activity (MT-2 cells exposed to HIV-1 LAI, MTT assay); conditions: Human immunodeficiency virus 1, MT2, 168 h, 7 days, read-out: Antiviral activity, EC50 HIV-1
Source text: HIV-1 LAI was used as a wild-type HIV-1 molecular clone. In addition, MT-2 cells were used as cells to be infected. These cells were continuously cultured and maintained in a RPMI-1640 medium containing 10% FCS and supplemented with the aforementioned antibiotics. The MT-2 cells were exposed to HIV-1 LAI virus in an amount of 50 times the 50% infectious concentration (TCID 50), and the resultant MT-2 cells and a medium supplemented with each of the nucleoside derivatives at each of concentrations after serial dilution were together seeded into each cell of a 96-well cell culture dish at a concentration of 1×10^4 cells/mL. Then, after culturing for 7 days in the presence of each nucleoside derivative under standard culture conditions of 37° C. and 5% CO2, the number of live cells in each well was quantified by MTT assay. Based on the numbers of live cells obtained, the EC50 value was calculated and the anti-HIV activity of each nucleoside derivative was evaluated.

[4] = Cytotoxicity test 1, MT-2 cells (MTT assay); conditions: human
Method: as §1

[5] = test system: ETV resistant strain (genotype: HBV/Ce); assay: Evaluation of anti-HBV/Ce activity (Huh-7 cells transfected with ETV resistant strain, Southern blot); conditions: Hepatitis B virus, Huh-7, 72 h, read-out: Antiviral activity, EC50 HBV ETVr
Method: Regarding the above nucleoside derivatives, each nucleoside derivative was added to Huh-7 cells transfected with an ETV resistant strain (genotype: HBV/Ce, referred to as “HBV ETVr” in Table 1). After 72 hours from the addition, DNAs were extracted from the cells according to a conventional method, and analyzed by Southern blot using a probe for the HBV gene. Thus, the DNA copy number of the viruses was quantified, and the EC50 value was calculated in the same way as described above.

[6] = Cytotoxicity test 2, PXB cells (MTT assay); conditions: PXB cells (fresh human hepatocytes)
Method: PXB cells were used as test cells. PXB cells were fresh human hepatocytes isolated from chimeric mice with humanized liver and were maintained in a dHCGM medium for PXB cells. Both the cells and the medium are made by PhoenixBio Co., Ltd.
The PXB cells were seeded at 3×10^5 cells/ml on a collagen-coated 96-well plate and cultured together with each compound at each concentration after stepwise dilution for 7 days under the standard culture conditions of 37° C. and 5% CO2, and thereafter the number of live cells in each well was quantified by an MTT assay. Based on the obtained values, the degree of cytotoxicity was determined, and the CC50 value was calculated as the cytotoxicity of each compound.

[7] = 336 h, day 14, intracellular HBV DNA, read-out: Antiviral activity, EC50 HBV 2W assay

## C=C1[C@@H](n2cnc3c(=O)[nH]c(N)nc32)C[C@H](O)[C@@]1(C#N)CO
[1]; [7]
  EC50: 30 nM
[2]
  CC50 at 7 days: 89000 nM
[3]
  EC50: 160 nM
[4]
  CC50 at 7 days: > 100000 nM

## C=C1[C@@H](n2cnc3c(=O)[nH]c(N)nc32)C[C@H](O)[C@@]1(O)CO
[1]; [7]
  EC50: 10 nM
[2]
  CC50 at 7 days: 67000 nM
[3]
  EC50: > 1000 nM
[4]
  CC50 at 7 days: > 100000 nM

## C=C1[C@@H](n2cnc3c(=O)[nH]c(N)nc32)C[C@H](O)[C@]1(CO)CF
[1]; [7]
  EC50: 90 nM
[2]
  CC50 at 7 days: > 100000 nM
[3]
  EC50: > 1000 nM
[4]
  CC50 at 7 days: > 100000 nM

## C=C[C@]1(CO)C(=C)[C@@H](n2cnc3c(=O)[nH]c(N)nc32)C[C@@H]1O
[1]; [7]
  EC50: > 1000 nM
[2]
  CC50 at 7 days: > 100000 nM
[3]
  EC50: > 1000 nM
[4]
  CC50 at 7 days: > 100000 nM

## C#C[C@]1(CO)C(=C)[C@@H](n2cnc3c(=O)[nH]c(N)nc32)C[C@@H]1O
[1]; [7]
  EC50: > 1000 nM
[2]
  CC50 at 7 days: > 100000 nM
[3]
  EC50: 27 nM
[4]
  CC50 at 7 days: > 100000 nM

## N#C[C@]1(CO)/C(=C\F)[C@@H](n2cnc3c(=O)[nH]c(N)nc32)C[C@@H]1O [(1S,3S,5S,E)-3-(2-Amino-6-oxo-1,6-dihydro-9H-purin-9-yl)-2-(fluoromethylene)-5-hydroxy-1-(hydroxymethyl)cyclopentane-1-carbonitrile]
[1]; 168 h, day 7, HBV DNA in culture supernatant, read-out: Antiviral activity, EC50 HBV 1W assay
  EC50: 3 nM
[1]; [7]
  EC50: 7 nM
[5]
  EC50: 65.3 nM
[2]
  CC50 at 7 days: 50000 nM
[6]
  CC50 at 7 days: > 100000 nM
[3]
  EC50: 20 nM
[4]
  CC50 at 7 days: > 100000 nM
